Like-named read-outs stand apart in the source and are kept apart here.
Experiments:
[1] = molecular target: T1, CMY-2 (Klebsiella pneumoniae, UniProt Q48434); experiment: biochemical; set-up: species or system Citrobacter spp.
T1 construct: made in house; host or cells: E. coli TOP10, plasmid pUCp24

[2] = molecular target: ADC-50 (Acinetobacter baumannii, UniProt Q6DRA1); experiment: IC50 of β-lactamase inhibitors, crude extract, ADC-50; format: biochemical, A. baumannii; conditions: for IC50: ADC-50, crude extract of E. coli TOP10 recombinant strain, mean of triplicate; for inhibition of ADC-50 (in words): ADC-50 of A. baumannii
[3] = molecular target: FOX-5 (Aeromonas allosaccharophila, UniProt Q9F4K3); experiment: IC50 of β-lactamase inhibitors, crude extract, FOX-5; format: biochemical
[4] = molecular target: T2, CMY-42 (Klebsiella pneumoniae, UniProt Q48434, V231S); experiment: biochemical; set-up: species or system Citrobacter spp.
T2 construct: made in house; host or cells: E. coli TOP10, plasmid pUCp24

[5] = molecular target: SRT-1 (Serratia marcescens, UniProt P18539); experiment: IC50 of β-lactamase inhibitors, crude extract, SRT-1; format: biochemical; conditions: crude extract of E. coli TOP10 recombinant strain, mean of triplicate
[6] = molecular target: MOX-2 (Aeromonas caviae, UniProt Q9L3G2); experiment: IC50 of β-lactamase inhibitors, crude extract, MOX-2; format: biochemical
[7] = molecular target: DHA-1 (Morganella morganii, UniProt P94958); experiment: IC50 of β-lactamase inhibitors, crude extract, DHA-1; format: biochemical
[8] = molecular target: LAT-1 (Citrobacter portucalensis, UniProt Q48443); experiment: biochemical
[9] = molecular target: ACT-17 (Enterobacter asburiae, UniProt P05364); format: biochemical; conditions: crude extract of E. coli TOP10 recombinant strain, mean of triplicate
[10] = molecular target: ACT-7 (Enterobacter asburiae, UniProt B6V6L3); experiment: biochemical
[11] = molecular target: Ear-1 (Klebsiella aerogenes, UniProt A0A0H3FRQ3); experiment: IC50 of β-lactamase inhibitors, crude extract, Ear-1; format: biochemical
[12] = molecular target: ACC-1 (Hafnia alvei, UniProt Q9XB24); experiment: IC50 of β-lactamase inhibitors, crude extract, ACC-1; format: biochemical
[13] = molecular target: YRC-1 (Yersinia ruckeri, UniProt Q20I87); experiment: IC50 of β-lactamase inhibitors, crude extract, YRC-1; format: biochemical
[14] = molecular target: MIR-17; experiment: IC50 of β-lactamase inhibitors, crude extract, MIR-17; format: biochemical, Enterobacter roggenkampii; conditions: crude extract of E. coli TOP10 recombinant strain, mean of triplicate
[15] = molecular target: T3, PDC-5 (Pseudomonas aeruginosa, UniProt P24735, R79Q/T105A); experiment: biochemical; set-up: species or system P. aeruginosa
T3 construct: made in house; host or cells: E. coli TOP10, plasmid pUCp24

[16] = molecular target: PDC-382 (Pseudomonas aeruginosa, UniProt P24735, T96I); experiment: biochemical; set-up: species or system P. aeruginosa
[17] = molecular target: T4, PDC-1 (Pseudomonas aeruginosa, UniProt P24735); experiment: biochemical; set-up: species or system P. aeruginosa
T4 construct: made in house; host or cells: E. coli TOP10, plasmid pUCp24

[18] = system: E. coli ADC-50 (E. coli TOP10 recombinant strain); experiment: microbe, parasite or virus in culture; format: cell-based, Escherichia coli; conditions: ADC-50 (cAmpC of A. baumannii); susceptibility testing of recombinant E. coli
Procedure: (§1) In order to assess the relative inhibitory activities of those BLI against AmpC β-lactamases, the corresponding blaampC genes without the original promoter sequences were amplified by PCR with specific primers, and corresponding amplicons were cloned into plasmid pUCp24, as described previously ([12], [13]). […] Cultures of E. coli TOP10 harboring recombinant plasmids and therefore producing the different AmpC tested were grown overnight at 37°C in Luria-Bertani agar medium containing amoxicillin (AMX) (50 µg/mL). The activity of the following acquired class C β-lactamases could therefore be evaluated, namely, ACC-1 (originally from Hafnia spp.), FOX-5 (from Aeromonas allosaccharophila), CMY-2 and CMY-42 (from Citrobacter spp.), DHA-1 (from Morganella morganii), ACT-7 and ACT-17 (from Enterobacter asburiae), MIR-17 (from Enterobacter roggenkampii), MOX-2 (from Aeromonas caviae), and LAT-1 (from Citrobacter portucalensis) ([5]). […] Altogether, these enzymes were chosen as representatives of clinically relevant class C β-lactamases being sources of intrinsic or acquired resistance to broad-spectrum β-lactams among most of the commonly identified Gram-negative bacteria in clinical practice.
(§2) MICs were determined in triplicate by broth microdilution (BMD) for CAZ and AMX, as well as their combinations with each β-lactamase inhibitor. CAZ, AMX, and CLA were purchased from Sigma-Aldrich (St. Louis, MO, USA). All others inhibitors (TAZ HY-W009168, AVI HY-14879, REL HY-16752, VAB HY-19930, NAC HY-109008, ZID HY-120859, TAN HY-109124, XER HY-136072, DUR HY-117974, EMT HY-103095) were purchased from MedChem Express (Luzern, Switzerland). The concentration of each β-lactamase inhibitor was chosen as the concentration used in the respective BL/BLI combination under development or commercially available, according to EUCAST or CLSI ([18], [19]). […] BMD assays were performed in cation-adjusted Mueller-Hinton (MH) broth (Bio-Rad, Marnes-la-Coquette, France) for all antibiotics or antibiotic combinations listed above, according to the EUCAST guidelines ([20]).

[19] = system: E. coli TOP10; experiment: microbe, parasite or virus in culture; format: cell-based; conditions: Escherichia coli, TOP10; E. coli TOP 10; β-lactamase inhibitor alone; read-out: MIC values of inhibitor alone
Procedure: as §1, §2

T2 sequence (Q48434 21-381 V231S): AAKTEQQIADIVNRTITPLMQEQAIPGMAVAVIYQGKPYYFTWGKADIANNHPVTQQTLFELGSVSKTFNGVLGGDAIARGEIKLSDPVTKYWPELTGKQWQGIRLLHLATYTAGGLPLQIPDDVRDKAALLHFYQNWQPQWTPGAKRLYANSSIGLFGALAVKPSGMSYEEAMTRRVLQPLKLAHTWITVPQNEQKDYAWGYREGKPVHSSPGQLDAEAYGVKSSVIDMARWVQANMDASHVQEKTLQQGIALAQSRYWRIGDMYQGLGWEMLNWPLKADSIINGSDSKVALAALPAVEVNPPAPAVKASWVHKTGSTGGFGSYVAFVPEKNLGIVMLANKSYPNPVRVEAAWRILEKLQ
MOX-2, sequence (Q9L3G2 entry or part of it): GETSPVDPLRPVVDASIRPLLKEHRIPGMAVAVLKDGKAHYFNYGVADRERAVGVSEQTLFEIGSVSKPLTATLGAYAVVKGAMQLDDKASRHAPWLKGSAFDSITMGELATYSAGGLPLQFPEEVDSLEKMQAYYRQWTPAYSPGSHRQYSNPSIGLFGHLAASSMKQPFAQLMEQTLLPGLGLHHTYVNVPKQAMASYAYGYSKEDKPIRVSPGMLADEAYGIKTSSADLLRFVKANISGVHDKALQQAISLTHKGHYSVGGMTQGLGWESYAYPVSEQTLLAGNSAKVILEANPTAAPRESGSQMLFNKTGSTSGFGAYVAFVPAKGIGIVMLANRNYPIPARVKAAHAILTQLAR
SRT-1, sequence (P18539 22-376): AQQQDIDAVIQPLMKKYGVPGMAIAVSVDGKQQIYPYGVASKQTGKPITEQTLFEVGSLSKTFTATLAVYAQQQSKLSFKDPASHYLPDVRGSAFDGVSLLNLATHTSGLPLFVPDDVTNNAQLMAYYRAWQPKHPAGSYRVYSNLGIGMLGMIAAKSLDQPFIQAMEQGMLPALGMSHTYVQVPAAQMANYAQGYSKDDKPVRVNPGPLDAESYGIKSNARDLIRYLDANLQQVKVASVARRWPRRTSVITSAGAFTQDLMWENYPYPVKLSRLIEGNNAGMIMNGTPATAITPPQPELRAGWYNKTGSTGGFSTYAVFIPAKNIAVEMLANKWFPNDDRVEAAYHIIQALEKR
T1 sequence (Q48434 21-381): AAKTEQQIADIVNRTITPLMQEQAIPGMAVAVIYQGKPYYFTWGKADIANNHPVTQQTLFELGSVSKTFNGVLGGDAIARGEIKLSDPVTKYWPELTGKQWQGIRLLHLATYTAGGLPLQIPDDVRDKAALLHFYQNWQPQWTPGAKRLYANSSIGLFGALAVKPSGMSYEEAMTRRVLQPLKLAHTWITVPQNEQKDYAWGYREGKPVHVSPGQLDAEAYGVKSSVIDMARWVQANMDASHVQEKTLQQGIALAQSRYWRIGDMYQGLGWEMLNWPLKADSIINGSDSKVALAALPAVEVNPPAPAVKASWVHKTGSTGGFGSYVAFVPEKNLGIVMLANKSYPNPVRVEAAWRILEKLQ
ACT-17, sequence (P05364 21-381): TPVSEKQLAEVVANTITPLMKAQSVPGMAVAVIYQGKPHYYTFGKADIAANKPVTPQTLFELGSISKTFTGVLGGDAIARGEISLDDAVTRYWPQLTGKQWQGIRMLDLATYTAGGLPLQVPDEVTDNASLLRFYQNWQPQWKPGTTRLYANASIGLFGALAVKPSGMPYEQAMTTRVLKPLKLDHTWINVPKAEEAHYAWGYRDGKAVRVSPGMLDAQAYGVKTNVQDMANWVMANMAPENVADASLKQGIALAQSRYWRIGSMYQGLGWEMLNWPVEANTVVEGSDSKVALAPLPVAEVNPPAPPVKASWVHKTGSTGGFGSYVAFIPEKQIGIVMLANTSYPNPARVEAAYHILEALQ
Ear-1, sequence (A0A0H3FRQ3 entry or part of it): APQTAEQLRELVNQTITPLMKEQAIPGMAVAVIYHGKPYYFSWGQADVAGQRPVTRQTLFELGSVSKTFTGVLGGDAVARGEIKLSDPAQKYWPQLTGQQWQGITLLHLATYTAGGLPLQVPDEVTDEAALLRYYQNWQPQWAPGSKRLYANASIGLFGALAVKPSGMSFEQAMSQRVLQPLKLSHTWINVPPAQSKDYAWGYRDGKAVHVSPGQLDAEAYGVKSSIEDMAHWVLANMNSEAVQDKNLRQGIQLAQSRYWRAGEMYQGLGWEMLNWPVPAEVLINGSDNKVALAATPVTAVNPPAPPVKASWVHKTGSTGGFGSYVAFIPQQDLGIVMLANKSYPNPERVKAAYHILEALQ
YRC-1, sequence (Q20I87 entry or part of it): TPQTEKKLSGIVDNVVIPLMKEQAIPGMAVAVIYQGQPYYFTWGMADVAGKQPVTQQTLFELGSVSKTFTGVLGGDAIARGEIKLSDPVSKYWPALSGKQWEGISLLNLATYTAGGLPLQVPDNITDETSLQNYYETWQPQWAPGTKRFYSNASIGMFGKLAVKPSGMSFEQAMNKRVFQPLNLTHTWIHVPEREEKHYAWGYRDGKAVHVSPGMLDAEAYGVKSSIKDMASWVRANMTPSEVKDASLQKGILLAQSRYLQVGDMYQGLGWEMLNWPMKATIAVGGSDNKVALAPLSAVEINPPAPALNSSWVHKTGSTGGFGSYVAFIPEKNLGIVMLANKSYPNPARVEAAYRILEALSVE
FOX-5, sequence (Q9F4K3 entry or part of it): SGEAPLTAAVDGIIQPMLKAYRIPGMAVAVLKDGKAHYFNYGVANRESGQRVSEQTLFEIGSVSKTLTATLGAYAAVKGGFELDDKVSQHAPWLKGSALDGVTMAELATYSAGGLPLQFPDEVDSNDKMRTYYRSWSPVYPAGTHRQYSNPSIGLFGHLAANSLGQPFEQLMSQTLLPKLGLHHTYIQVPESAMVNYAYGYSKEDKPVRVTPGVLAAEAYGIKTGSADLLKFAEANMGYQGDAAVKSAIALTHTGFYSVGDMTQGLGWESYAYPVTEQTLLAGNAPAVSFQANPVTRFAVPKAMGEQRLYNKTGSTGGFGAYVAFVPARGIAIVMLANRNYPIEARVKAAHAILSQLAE
ACT-7, sequence (B6V6L3 entry or part of it): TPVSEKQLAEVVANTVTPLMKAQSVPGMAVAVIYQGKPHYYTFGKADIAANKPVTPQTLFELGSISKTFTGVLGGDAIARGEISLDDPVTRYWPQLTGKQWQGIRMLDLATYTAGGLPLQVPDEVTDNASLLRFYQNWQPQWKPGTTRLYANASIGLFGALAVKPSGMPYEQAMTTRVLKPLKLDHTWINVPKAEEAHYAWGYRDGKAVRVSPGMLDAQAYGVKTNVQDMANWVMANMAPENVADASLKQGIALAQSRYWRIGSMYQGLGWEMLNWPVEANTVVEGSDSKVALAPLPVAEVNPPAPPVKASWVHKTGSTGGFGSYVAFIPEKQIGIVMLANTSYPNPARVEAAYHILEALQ
ACC-1, sequence (Q9XB24 entry or part of it): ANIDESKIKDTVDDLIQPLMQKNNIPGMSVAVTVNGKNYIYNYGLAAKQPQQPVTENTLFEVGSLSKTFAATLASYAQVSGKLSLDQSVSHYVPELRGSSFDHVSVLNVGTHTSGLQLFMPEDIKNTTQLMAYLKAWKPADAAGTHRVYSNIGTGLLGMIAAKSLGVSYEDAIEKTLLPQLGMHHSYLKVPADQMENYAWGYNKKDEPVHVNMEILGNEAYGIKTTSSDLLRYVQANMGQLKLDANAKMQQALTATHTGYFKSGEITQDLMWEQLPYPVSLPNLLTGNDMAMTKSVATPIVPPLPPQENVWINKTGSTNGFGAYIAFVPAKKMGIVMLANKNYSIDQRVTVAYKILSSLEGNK
LAT-1, sequence (Q48443 entry or part of it): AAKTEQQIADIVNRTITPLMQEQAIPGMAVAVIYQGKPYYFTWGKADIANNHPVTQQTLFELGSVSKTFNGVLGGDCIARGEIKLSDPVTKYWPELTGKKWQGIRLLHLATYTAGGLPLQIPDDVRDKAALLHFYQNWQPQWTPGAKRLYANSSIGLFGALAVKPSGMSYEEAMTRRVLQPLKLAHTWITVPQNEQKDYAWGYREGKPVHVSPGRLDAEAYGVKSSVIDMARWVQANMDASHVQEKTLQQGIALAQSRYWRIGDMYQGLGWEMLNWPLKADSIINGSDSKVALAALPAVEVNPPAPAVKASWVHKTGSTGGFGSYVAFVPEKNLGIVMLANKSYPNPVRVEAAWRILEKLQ
T3 sequence (P24735 27-397 R79Q/T105A): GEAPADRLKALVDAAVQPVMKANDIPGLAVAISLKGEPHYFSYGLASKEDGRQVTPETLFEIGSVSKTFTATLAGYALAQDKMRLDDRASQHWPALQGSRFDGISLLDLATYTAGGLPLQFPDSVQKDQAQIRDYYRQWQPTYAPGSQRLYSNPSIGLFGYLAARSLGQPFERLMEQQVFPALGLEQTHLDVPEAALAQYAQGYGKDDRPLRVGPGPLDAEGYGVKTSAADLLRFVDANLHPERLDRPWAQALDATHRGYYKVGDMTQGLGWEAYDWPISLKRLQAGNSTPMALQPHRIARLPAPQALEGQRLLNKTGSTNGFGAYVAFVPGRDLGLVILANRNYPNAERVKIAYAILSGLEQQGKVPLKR
PDC-382, sequence (P24735 27-397 T96I): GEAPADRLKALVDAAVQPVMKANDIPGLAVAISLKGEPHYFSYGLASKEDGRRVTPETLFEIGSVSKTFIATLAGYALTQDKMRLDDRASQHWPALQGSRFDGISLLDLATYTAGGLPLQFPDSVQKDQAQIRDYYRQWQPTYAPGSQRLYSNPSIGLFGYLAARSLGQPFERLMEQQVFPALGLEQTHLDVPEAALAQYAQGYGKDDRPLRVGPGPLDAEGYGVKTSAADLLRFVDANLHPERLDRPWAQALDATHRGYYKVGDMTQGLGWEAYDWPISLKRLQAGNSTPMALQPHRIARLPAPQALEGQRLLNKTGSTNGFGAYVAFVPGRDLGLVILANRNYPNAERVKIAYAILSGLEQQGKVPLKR

Compound	IC50 [1]	IC50 [2]	IC50 [3]	IC50 [4]	IC50 [5]	IC50 [6]	IC50 [7]	IC50 [8]	IC50 [9]	IC50 [10]	IC50 [11]	IC50 [12]	IC50 [13]	IC50 [14]	inhibition of ADC-50 (in words) [2]	other results
O=C(NC1CCNCC1)[C@@H]1CC[C@@H]2CN1C(=O)N2OS(=O)(=O)O [Relebactam, relebactam]	590 nM	13 µM	2000 nM	1100 nM	37 µM	2400 nM	850 nM	230 nM	330 nM	710 nM	890 nM	580 nM	1900 nM	1300 nM	–	IC50 ([2]; listed as REL): > 13 µM
NCCN[C@H]1CC[C@H](CC(=O)N[C@H]2Cc3cccc(C(=O)O)c3OB2O)CC1 [Taniborbactam, taniborbactam]	–	–	–	–	–	–	–	–	–	–	–	–	–	30 nM	not significantly inhibited	IC50 ([2]; read-out: IC50): 26 µM; IC50 ([15]; PDC-5, crude extract of E. coli TOP10 recombinant strain, mean of triplicate, read-out: IC50): 0.51 µM; IC50 ([3]; FOX-5, crude extract of E. coli TOP10 recombinant strain, mean of triplicate, read-out: IC50): 160 nM; IC50 ([4]; CMY-42, crude extract of E. coli TOP10 recombinant strain, mean of triplicate, read-out: IC50): 680 nM; IC50 ([16]; PDC-382, crude extract of E. coli TOP10 recombinant strain, mean of triplicate, read-out: IC50): 5 µM; IC50 ([17]; PDC-1, crude extract of E. coli TOP10 recombinant strain, mean of triplicate, read-out: IC50): 1.1 µM; IC50 ([5]; read-out: IC50): 0.06 µM; IC50 ([6]; MOX-2, crude extract of E. coli TOP10 recombinant strain, mean of triplicate, read-out: IC50): 320 nM; IC50 ([7]; DHA-1, crude extract of E. coli TOP10 recombinant strain, mean of triplicate, read-out: IC50): 120 nM; IC50 ([8]; LAT-1, crude extract of E. coli TOP10 recombinant strain, mean of triplicate, read-out: IC50): 230 nM; IC50 ([9]; read-out: IC50): 210 nM; IC50 ([10]; ACT-7, crude extract of E. coli TOP10 recombinant strain, mean of triplicate, read-out: IC50): 190 nM; IC50 ([11]; Ear-1, crude extract of E. coli TOP10 recombinant strain, mean of triplicate, read-out: IC50): 110 nM; IC50 ([12]; ACC-1, crude extract of E. coli TOP10 recombinant strain, mean of triplicate, read-out: IC50): 180 nM; sensitivity of ADC-50 β-lactamase to inhibitor (in words) [18]: resistant; IC50 ([13]; YRC-1, crude extract of E. coli TOP10 recombinant strain, mean of triplicate, read-out: IC50): 100 nM
C[C@]1(Cn2ccnn2)[C@H](C(=O)O)N2C(=O)C[C@H]2S1(=O)=O [Tazobactam, tazobactam]	20000 nM	> 100 µM	23000 nM	24000 nM	48 µM	> 100000 nM	1300 nM	7300 nM	–	23000 nM	72000 nM	2100 nM	> 100000 nM	83000 nM	–	–
O=C(O)C[C@@H]1CC[C@H](NC(=O)Cc2cccs2)B(O)O1 [Vaborbactam, vaborbactam]	5300 nM	> 100 µM	17000 nM	13000 nM	6.9 µM	1900 nM	3100 nM	1200 nM	2600 nM	3600 nM	840 nM	3600 nM	2000 nM	1100 nM	not significantly inhibited	IC50 [15]: 37 µM; IC50 [16]: 54 µM; IC50 [17]: 11 µM
O=C(NNC(=O)[C@@H]1CC[C@@H]2CN1C(=O)N2OS(=O)(=O)O)[C@@H]1CCCNC1 [Zidebactam, zidebactam]	120 nM	5.5 µM	990 nM	170 nM	37 µM	2700 nM	60 nM	5 nM	140 nM	120 nM	120 nM	90 nM	90 nM	110 nM	–	IC50 ([2]; listed as ZID): 5 µM; MIC [19]: 0.125 µg/mL

Source: publication PMC11539244, “Relative inhibitory activities of newly developed diazabicyclooctanes, boronic acid derivatives, and penicillin-based sulfone β-lactamase inhibitors against broad-spectrum AmpC β-lactamases” (Antimicrobial Agents and Chemotherapy, 2024)
